From US10155751B2, “Pyrazolyl-substituted heteroaryls and their use as medicaments” (Boehringer Ingelheim International GmbH, priority 2015, dated 2018)

Test system: human hepatocytes
Assay: Human hepatocyte stability test
Format: in vitro ADME
Conditions: human hepatocyte suspension, percent of hepatic blood flow
Procedure: A more comprehensive way to measure the metabolic stability of a compound of the instant invention than microsomal stability (section 5.6) is the human hepatocyte stability test as described below. Herein the metabolic degradation for the compound in question is performed in a human hepatocyte suspension.
Human hepatocytes (typically cryopreserved) are incubated in an appropriate buffer system (e.g. Dulbecco's modified eagle medium plus 3.5 μg glucagon/500 mL, 2.5 mg insulin/500 mL and 3.75 mg/500 mL hydrocortison) containing 5% species serum.
Following a (typically) 30 min preincubation in an incubator (37° C., 10% CO2) 5 μl of the solution of the compound to be tested ([…]; from 2 mM in DMSO stock solution diluted 1:25 with medium) are added into 395 μl hepatocyte suspension (cell density is in the range of 0.25-5 Mio cells/mL, typically 1 Mio cells/mL; the final concentration of the compound in question is […], the final DMSO concentration is 0.05%).
The cells are incubated for six hours (incubator, orbital shaker) and samples (25 μl) are taken at 0, 0.5, 1, 2, 4 and 6 hours. Samples are transferred into acetonitrile and pelleted by centrifugation (5 min). The supernatant is transferred to a new 96-deepwell plate, evaporated under nitrogen and resuspended.
The decline of the compound to be tested is analyzed by HPLC-MS/MS.
CLint is calculated as follows CL_INTRINSIC=Dose/AUC=(C0/CD)/(AUD+clast/k)×1000/60.
C0: initial concentration in the incubation [μM], CD: cell density of vital cells [10^6 cells/mL], AUD: area under the data [μM×h], clast: concentration of last data point [μM], k: slope of the regression line for the compound in question decline [h−1].
The calculated in vitro hepatic intrinsic clearance can be scaled up to the intrinsic in vivo hepatic Clearance and used to predict hepatic in vivo blood clearance (CL) by the use of a liver model (well stirred model). CL_INTRINSIC_INVIVO [ml/min/kg]=(CL_INTRINSIC [μL/min/10^6cells]×hepatocellularity[10^6 cells/g liver]×liver factor [g/kg bodyweight])/1000 CL [ml/min/kg]=CL_INTRINSIC_INVIVO [ml/min/kg]×hepatic blood flow [ml/min/kg]/(CL_INTRINSIC_INVIVO [ml/min/kg]+hepatic blood flow [ml/min/kg]) Qh[%]=CL [ml/min/kg]/hepatic blood flow [ml/min/kg]) […]
Hepatocellularity, human: 120×10^6 cells/g liver
Liver factor, human: 25.7 g/kg bodyweight
Blood flow, human: 21 ml/(min×kg)
A satisfying human hepatocyte stability for a compound in question measured by this assay is represented by a Qh<20% (whereby the stability is better, the lower the Qh-value is).

Compound: Cc1c2c(O[C@H](C)[C@H]3CNC(=O)C3)nc(-c3c[nH]nc3C(C)(C)C)cc2nn1C [Example 4, (R)-4-{(R)-1-[6-(3-tert-Butyl-1H-pyrazol-4-yl)-2,3-dimeth-yl-2H-pyrazolo[4,3-c]pyridin-4-yloxy]-ethyl}-pyrrolidin-2-one]
- stability in human hepatocytes (chapter 5.7) HEPhu: 10 % Qh

Compound: C[C@@H](Oc1cc(-c2cnn(C3CCC(F)(F)C3)c2)cc2nn(C)c(F)c12)[C@H]1CNC(=O)C1 (some centres unmarked) [Example 7]
- stability in human hepatocytes (chapter 5.7) HEPhu: <4 % Qh

Compound: C[C@@H](Oc1cc(-c2cnn(C3CCC3)c2)cc2nn(C)c(F)c12)[C@H]1CNC(=O)C1 [Example 1, (R)-4-{(R)-1-[6-(1-Cyclobutyl-1H-pyrazol-4-yl)-3-fluoro-2-methyl-2H-indazol-4-yloxy]-ethyl}-pyrrolidin-2-one]
- stability in human hepatocytes (chapter 5.7) HEPhu: 10 % Qh

Compound: Cc1cc2c(O[C@H](C)[C@H]3CNC(=O)C3)cc(-c3cnn(C(C)(C)C)c3)cn2n1 [example 6.60 on page 587 of WO15017610, reference compound]
- stability in human hepatocytes (chapter 5.7) HEPhu: <4 % Qh

Compound: Cc1c2c(O[C@H](C)[C@H]3CNC(=O)C3)cc(-c3cnn(C4CC(C)(C)OC4(C)C)c3)cc2nn1C (stereo partly drawn) [Example 16, (R)-4-((R)-1-{2,3-Dimethyl-6-[1-(2,2,5,5-tetramethyl-tetrahydro-furan-3-yl)-1H-pyrazol-4-yl]2H-indazol-4-yloxy}-ethyl)-pyrrolidin-2-one]
- stability in human hepatocytes (chapter 5.7) HEPhu: 6 % Qh

Compound: Cc1cnn2cc(-c3cnn(C(C)(C)C)c3)cc(O[C@H](C)[C@H]3CNC(=O)C3)c12 [example 6.09 on page 559 of WO15017610, reference compound]
- stability in human hepatocytes (chapter 5.7) HEPhu: 17 % Qh

Compound: Cc1c2c(O[C@H](C)[C@H]3CNC(=O)C3)cc(-c3cnn(C(C)(C)C)c3)cc2nn1C [Example 13, (R)-4-{(R)-1-[6-(1-tert-Butyl-1H-pyrazol-4-yl)-2,3-dimethyl-2H-indazol-4-yloxy]-ethyl}-pyrrolidin-2-one]
- stability in human hepatocytes (chapter 5.7) HEPhu: 3 % Qh

Compound: Cc1c2c(O[C@H](C)[C@H]3CNC(=O)C3)cc(-c3cnn([C@H]4CO[C@@H]5CCCO[C@@H]54)c3)cc2nn1C [Example 10, 4-(1-{6-[(R)-(3S,3aR,7aR)-1-(Hexahydro-furo[3,2-b]pyran-3-yl)-1H-pyrazol-4-yl]-2,3-dimethyl-2H-indazol-4-yloxy}-ethyl)-pyrrolidin-2-one]
- stability in human hepatocytes (chapter 5.7) HEPhu: 9 % Qh

Compound: Cc1c2c(O[C@H](C)[C@H]3CNC(=O)C3)cc(-c3cnn(C4CCC(F)(F)C4)c3)cc2nn1C (stereo partly drawn) [Example 22, (R)-4-((R)-1-{6-[1-(3,3-Difluoro-cyclopentyl)-1H-pyrazol-4-yl]-2,3-dimethyl-2H-indazol-4-yloxy}-ethyl)-pyrrolidin-2-one]
- stability in human hepatocytes (chapter 5.7) HEPhu: 3 % Qh

Compound: Cc1c2c(O[C@H](C)[C@H]3CNC(=O)C3)cc(-c3cnn(C4CC4)c3)cc2nn1C [Example 20, (R)-4-{(R)-1-[6-(1-Cyclopropyl-1H-pyrazol-4-yl)-2,3-dimethyl-2H-indazol-4-yloxy]-ethyl}-pyrrolidin-2-one]
- stability in human hepatocytes (chapter 5.7) HEPhu: <4 % Qh

Compound: Cc1c2c(O[C@H](C)[C@H]3CNC(=O)C3)cc(-c3cnn([C@@H]4CCOC(C)(C)C4)c3)cc2nn1C [Example 9, (R)-4-((R)-1-{6-[1-((R)-2,2-Dimethyl-tetrahydro-pyran-4-yl)-1H-pyrazol-4-yl]-2,3-dimethyl-2H-indazol-4-yloxy}-ethyl)-pyrrolidin-2-one]
- stability in human hepatocytes (chapter 5.7) HEPhu: 6 % Qh

Compound: Cc1c2c(O[C@H](C)[C@H]3CNC(=O)C3)cc(-c3cnn(C(C)(C)C#N)c3)cc2nn1C [Example 17, 2-(4-{2,3-Dimethyl-4-[(R)-1-((R)-5-oxo-pyrrolidin-3-yl)-ethoxy]-2H-indazol-6-yl}-pyrazol-1-yl)-2-methyl-propionitrile]
- stability in human hepatocytes (chapter 5.7) HEPhu: 4 % Qh

Compound: Cc1c2c(O[C@H](C)[C@H]3CNC(=O)C3)cc(-c3cnn(C(C)C)c3)cc2nn1C [Example 18, (R)-4-{(R)-1-[6-(1-Isopropyl-1H-pyrazol-4-yl)-2,3-dimethyl-2H-indazol-4-yloxy]-ethyl}-pyrrolidin-2-one]
- stability in human hepatocytes (chapter 5.7) HEPhu: <4 % Qh

Compound: C[C@@H](Oc1cc(-c2cnn(CC3CC3)c2)cc2nn(C)c(F)c12)[C@H]1CNC(=O)C1 [Example 6, (R)-4-{(R)-1-[6-(1-Cycloprop-ylmethyl-1H-pyrazol-4-yl)-3-fluoro-2-methyl-2H-indazol-4-yloxy]-ethyl}-pyrrolidin-2-one]
- stability in human hepatocytes (chapter 5.7) HEPhu: 6 % Qh

Compound: CC(C)n1cc(-c2cc(O[C@H](C)[C@H]3CNC(=O)C3)c3c(F)n(C)nc3c2)cn1 [Example 2, (R)-4-{(R)-1-[3-Fluoro-6-(1-isopropyl-1H-pyrazol-4-yl)-2-methyl-2H-indazol-4-yloxy]-ethyl}-pyrrolidin-2-one]
- stability in human hepatocytes (chapter 5.7) HEPhu: <4 % Qh

Compound: Cc1c2c(O[C@H](C)[C@H]3CNC(=O)C3)cc(-c3cnn(CC4CC4)c3)cc2nn1C [Example 8, (R)-4-{(R)-1-[6-(1-Cyclopropylmethyl-1H-pyrazol-4-yl)-2,3-dimethyl-2H-indazol-4-yloxy]-ethyl}-pyrrolidin-2-one]
- stability in human hepatocytes (chapter 5.7) HEPhu: 5 % Qh

Compound: C[C@@H](Oc1nc(-c2cnn(C(C)(C)C)c2)cc2ncn(C)c12)[C@H]1CNC(=O)C1 [example 3A.02, on page 196 of WO15017610, reference compound]
- stability in human hepatocytes (chapter 5.7) HEPhu: 7 % Qh

Compound: Cc1c2c(O[C@H](C)[C@H]3CNC(=O)C3)cc(-c3cnn(C4CCC4)c3)cc2nn1C [Example 21, (R)-4-{(R)-1-[6-(1-Cyclobutyl-1H-pyrazol-4-yl)-2,3-dimethyl-2H-indazol-4-yloxy]-ethyl}-pyrrolidin-2-one]
- stability in human hepatocytes (chapter 5.7) HEPhu: 7 % Qh

Compound: Cc1c2c(O[C@H](C)[C@H]3CNC(=O)C3)cc(-c3cnn(CC(C)C)c3)cc2nn1C [Example 19, (R)-4-{(R)-1-[6-(1-Isobutyl-1H-pyrazol-4-yl)-2,3-dimethyl-2H-indazol-4-yloxy]-ethyl}-pyrrolidin-2-one]
- stability in human hepatocytes (chapter 5.7) HEPhu: 7 % Qh

Compound: C[C@@H](Oc1cc(-c2cnn(C3CC(C)(C)OC3(C)C)c2)cc2nn(C)c(F)c12)[C@H]1CNC(=O)C1 (stereo partly drawn) [Example 14, (R)-4-((R)-1-{3-Fluoro-2-methyl-6-[1-(2,2,5,5-tetramethyl-tetrahydro-furan-3-yl)-1H-pyrazol-4-yl]-2H-indazol-4-yloxy}-ethyl)-pyrrolidin-2-one]
- stability in human hepatocytes (chapter 5.7) HEPhu: 12 % Qh

Compound: C[C@@H](Oc1cc(-c2cnn(C(C)(C)C)c2)cc2ncn(C)c12)[C@H]1CNC(=O)C1 [example 3B.22 on page 219 of WO15017610, reference compound]
- stability in human hepatocytes (chapter 5.7) HEPhu: 5 % Qh

Compound: Cc1cnn2cc(-c3cnn(C(C)(C)C)c3)nc(O[C@H](C)[C@H]3CNC(=O)C3)c12 [example 5.20 on page 506 of WO15017610, reference compound]
- stability in human hepatocytes (chapter 5.7) HEPhu: 31 % Qh

Compound: Cc1c2c(O[C@H](C)[C@H]3CNC(=O)C3)cc(-c3cnn(CCF)c3)cc2nn1C [Example 11, (R)-4-((R)-1-{6-[1-(2-Fluoro-ethyl)-1H-pyrazol-4-yl]-2,3-dimethyl-2H-indazol-4-yloxy}-ethyl)-pyrrolidin-2-one]
- stability in human hepatocytes (chapter 5.7) HEPhu: 4 % Qh
